Where two headings read alike, the source gives them in different places. Marks after values point to notes of the source that are not given here.
What was measured:
Kunming mice [1] = assay: Acetic Acid Twisting Method in mice (antalgic effect); type: in vivo; details: for twisting response inhibiting rate (%): subcutaneous injection at neck; for twisting response inhibiting rate (%) / antalgic: mice; for antalgic: single dosage 20 mg/kg, acetic acid twisting, unit not given (method: inhibiting rate %)
Kunming mice [2] = assay: Sedative effect: spontaneous activity of the mice recorded with AC power tube; type: in vivo; details: single dosage 20 mg/kg, unit not given
Description: Kunming mice, clean class KM, purchased from Shanghai SLAC LABORATORY ANIMAL CO. LTD, breeding at general environment.
The compounds are formulated to solutions of 4 mg/ml, 2 mg/ml, and 1 mg/ml with water for injection. Animals in the control group and treatment group are all administered through subcutaneous injection at neck.
First of all, the mice in the treatment group are administrated with a solution of tested compounds (10 mg/kg, 20 mg/kg, 40 mg/kg) through subcutaneous injection at neck, the negative control group is administrated with physiological saline (20 ml/kg) orally, and the positive control group is administrated with Aspirin (20 ml/kg) orally. Each group is administrated with 10 ml/kg of 0.7% acetic acid via intraperitoneal injection (i.p.) after one hour. After 5 minutes, times of twisting response of each group of mice is recorded in 15 minutes, and twisting response inhibiting rate of each of the treatment groups is calculated according to the following equation: Inhibiting rate %=(average twisting times of negative control group−average twisting times of treated group)/average twisting times of negative control group×100% 6. A Sedative Effect is Evaluated by Using AC Power Tube to Record Spontaneous Activity of the Mice. 7. Testing the Antalgic and Sedative Effect of the Compounds with Single Dosage (20 mg/kg), See Table 2 for Details.

Kunming mice [3] = assay: Hot Plate Method in mice (antalgic effect); type: in vivo
mice [4] = details: mouse, in vivo
mice [5] = details: daily for eight days; III-15 60 mg/kg oral gavage, Morphine 10 mg/kg PO; Hot Plate 15 minutes after each administration
mice [6] = assay: Jump test in mice (physical dependence, naloxone precipitated); details: III-15 seven times in two days, 20-120 mg/kg PO, naloxone 2 mg/kg i.v. three hours after last dosing
mice [7] = assay: Conditioned Place Preference test in mice (psychological dependence); details: III-15 60 mg/kg oral gavage each day for six consecutive days
[8] = test system: S. typhimurium TA97, TA98, TA100 and TA102; assay: Bacterial Reverse-Mutation Assay (Ames TS); type: cell-based
Excerpt: Strains: S. typhimurium TA97, TA98, TA100 and TA102.
Results: The assay included two parts: without S9 and with S9.

[9] = Animal model studies, summary (oral absorption, therapeutic index); details: summary statement
[10] = Mus musculus, sc, read-out: twisting response inhibiting rate (%)

## COC1(CC(=O)c2ccccc2)CCN(Cc2ccc(NC(C)=O)cc2)CC1.Cl [VIII-1, N-p-acetylaminobenzyl-4-benzoylmethyl-4-methoxylpiperidine hydrochloride]
Kunming mice [1]; 10 mg/kg
  twisting response inhibiting rate (%): 35.03* %
Kunming mice [1]; 20 mg/kg
  twisting response inhibiting rate (%): 42.11%
Kunming mice [1]; 40 mg/kg
  twisting response inhibiting rate (%): 57.69%
Kunming mice [1]
  antalgic: 64
Kunming mice [2]
  sedative: 48
Kunming mice [3]; 10 mg/kg, subcutaneous injection at neck, 1 hour after dosing, hot plate 55.5° C.
  Increasing rate of pain threshold (%): 61.04%
Kunming mice [3]; 20 mg/kg, subcutaneous injection at neck, 1 hour after dosing, hot plate 55.5° C.
  Increasing rate of pain threshold (%): 76.63* %
Kunming mice [3]; 40 mg/kg, subcutaneous injection at neck, 1 hour after dosing, hot plate 55.5° C.
  Increasing rate of pain threshold (%): 105.20* %

## CC(=O)Nc1ccc(CN2CCC(O)(CC(O)c3ccccc3)CC2)cc1.Cl (stereo not shown) [Compound V-2, N-p-acetylaminobenzyl-4-(2-hydroxy-2-phenylethyl)-4-piperidinol hydrochloride]
Kunming mice [1]
  antalgic: 80
Kunming mice [2]
  sedative: 39.6

## CN1CC[C@]23c4c5ccc(O)c4O[C@H]2[C@@H](O)C=C[C@H]3[C@H]1C5 [Morphine, reference compound]
Kunming mice [3]; Mus musculus, sc, 1 h, positive control, 2 mg/kg (remark), subcutaneous injection, hot plate, read-out: Increasing rate of pain threshold (%)
  change in vivo at 2 mg/kg: 202%
Mice [4]
  reversal of the antalgic effect by naloxone: is reversed by naloxone
Mice [5]
  change of pain threshold / antalgic effect on consecutive administration (drug resistance): reduces gradually starting from the second day of administration
Mice [6]
  jumping behavior after naloxone (physical dependence): obvious jumping behavior
Mice [7]
  Conditioned Place Preference (psychological dependence): show obvious Conditioned Place Preference

## COc1ccc(CN2CCC(O)(CC(=O)c3ccccc3)CC2)cc1.Cl [III-15, N-p-methoxybenzyl-4-benzoylmethyl-4-piperidinol hydrochloride]
Kunming mice [1]; Mus musculus, sc, read-out: antalgic
  inhibition in vivo at 20 mg/kg: 96%
Kunming mice [1]; [10]
  inhibition in vivo at 10 mg/kg: 55.4%
  inhibition in vivo at 20 mg/kg: 94.4%
  inhibition in vivo at 40 mg/kg: 100%
Kunming mice [3]; Mus musculus, sc, 10 mg/kg, subcutaneous injection at neck, 1 hour after dosing, hot plate 55.5° C., read-out: Increasing rate of pain threshold (%)
  change in vivo at 10 mg/kg: 77.7%
Kunming mice [3]; Mus musculus, sc, 20 mg/kg, subcutaneous injection at neck, 1 hour after dosing, hot plate 55.5° C., read-out: Increasing rate of pain threshold (%)
  change in vivo at 20 mg/kg: 118%
Kunming mice [3]; Mus musculus, sc, 40 mg/kg, subcutaneous injection at neck, 1 hour after dosing, hot plate 55.5° C., read-out: Increasing rate of pain threshold (%)
  change in vivo at 40 mg/kg: 260%
Mice [4]
  reversal of the antalgic effect by naloxone: does not reversed by naloxone
[8]; TA97, TA98, TA100, TA102, without S9 and with S9, all tested doses
  Ames test result (revertants): negative
[8]; without S9 TA98 5000 μg/plate and with S9 TA97 5000 μg/plate, no inhibition at all other doses and strains
  inhibitory effect on bacterial growth: inhibitory effects on bacterial for the growth were seen
Mice [5]
  change of pain threshold / antalgic effect on consecutive administration (drug resistance): does not show weakening
Mice [6]
  jumping behavior after naloxone (physical dependence): no jumping behavior is observed
[9]
  absorption after oral administration: good absorption after oral administration
Mice [7]
  Conditioned Place Preference (psychological dependence): do not show Conditioned Place Preference

## CC(=O)Nc1ccc(CN2CCC(O)(CC(=O)c3ccccc3)CC2)cc1.Cl [III-6, N-p-acetylaminobenzyl-4-benzoylmethyl-4-piperidinol hydrochloride]
Kunming mice [1]
  antalgic: 45
Kunming mice [2]
  sedative: 75

Source: patent publication US8501778B2, “Aralkyl piperidine derivatives and their uses as antalgic or ataractic agent” (priority 2008, dated 2013)
